What all share (type): cell-based
For assay [1], the system named is Enterobacterales overproducing AmpC. The experiment in a line: Broth microdilution susceptibility of isolates overexpressing AmpC. The method, then:
Frozen-form broth microdilution panels were manufactured by JMI Laboratories and contained cation-adjusted Mueller-Hinton broth. Quality assurance was performed by sterility checks, colony counts, and testing CLSI recommended quality control reference strains.
(Broth dilution looks for growth in wells or tubes with falling amounts of substance.)

Assay [2] deals with Vancomycin-susceptible Enterococcus faecalis. The assay can be described thus: Broth microdilution against Gram-positive clinical isolates. The settings on record: Enterococcus faecalis; E. faecalis, 31 isolates. The method, then: (§1) The purpose of this study was to investigate the in vitro activity of tebipenem and comparator agents, including ertapenem and meropenem, against a recent collection of Gram-positive isolates associated with clinical infections. The susceptibility of 580 Gram-positive organisms were tested, including: Methicillin-susceptible Staphylococcus aureus (MSSA, 489 isolates), Methicillin-susceptible Staphylococcus epidermidis (MSSE, 31), other methicillin-susceptible coagulase-negative staphylococci (MSCONS, 29), and Vancomycin-susceptible Enterococcus faecalis (31). Bacterial species were identified by JMI Laboratories using standard microbiology methods and matrix-assisted laser desorption ionization-time of flight mass spectrometry (Bruker Daltonics, Bremen, Germany). The isolates were collected in 2018 and 2019 as part of the SENTRY surveillance program and selected to be representative of these species with 45.0% from the United States, 44.3% from Europe, 5.3% from the Asia-Pacific region, and 5.3% from Latin America. Isolates are primarily from pneumonia in hospitalized patients (498 isolates; 85.9%), urinary tract infections (42 isolates; 7.2%), and bloodstream infections (38 isolates; 6.6%). Isolates were tested in a central laboratory (JMI Laboratories) for antimicrobial susceptibility using the CLSI M07 (2018) reference broth microdilution method. JMI Laboratories produced frozen-form 96-well panels and used cation-adjusted Mueller-Hinton broth (CA-MHB) as the testing medium. All categorical interpretations used CLSI M100 (2021) and EUCAST v10.0 (2021) breakpoint criteria, where published. Quality control organisms include Escherichia coli ATCC 25922, Escherichia coli ATCC 35218, Enterococcus faecalis ATCC 29212, Pseudomonas aeruginosa ATCC 27853, and Staphylococcus aureus ATCC 29213 were tested concurrently with clinical isolates.

Assay [3] concerns Methicillin-susceptible Staphylococcus epidermidis (MSSE). Described as above. The settings on record: Staphylococcus epidermidis, 31 isolates. The method, then: as §1
Assay [4] concerns Methicillin-susceptible Staphylococcus aureus (MSSA). Described as above. The settings on record: Staphylococcus aureus, 489 isolates. The procedure: as §1

In brackets after ≈: the same amount, converted by molar mass. Like-named read-outs stand apart in the source and are kept apart here.

With `C[C@@H](O)[C@H]1C(=O)N2C(C(=O)O)=C(S[C@@H]3CN[C@H](C(=O)Nc4cccc(C(=O)O)c4)C3)[C@H](C)[C@H]12` [Ertapenem, ertapenem], the MIC50 in assay [1] came out at 0.12 µg/mL (≈ 0.252 µM); in assay [1] (Enterobacterales (36)), 0.12 μ/ml. The MIC90 was 2 µg/mL (≈ 4.21 µM) in assay [1]; 2 μ/ml in assay [1] (Enterobacterales (36)); more than 8 µg/mL in assay [2]; 0.5 µg/mL (≈ 1.05 µM) in assay [3]; 0.25 µg/mL (≈ 0.526 µM) in assay [4]. Moreover, in assay [1] (Enterobacterales (36)), the “CLSI %1” value is 8.3%. In assay [1] (Enterobacterales (36)), the “CLSI % R” value is 11.1%. Also, the “CLSI % S” value in assay [1] (Enterobacterales (36)) is 80.6%.

For the origin of these results see patent US12048691B2 (SPERO THERAPEUTICS, INC., priority 2020, dated 2024).
